The results in this text go back to EP0590919A1, “Therapeutic agents for parkinson's disease” (KYOWA HAKKO KOGYO CO., LTD., priority 1992, dated 1994).

For one data set, the system named is dd-strain male mice. The data set can be described thus: Acute toxicity test (minimum lethal dose, oral). In kind it is in vivo. The following applies: oral administration, three mice per group, mortality seven days after administration. On the procedure: Test compounds were orally administered to groups of dd-strain male mice weighing 20 ± 1 g, each group consisting of three mice. Seven days after the administration, minimum lethal dose (MLD) of each compound was determined by observing the mortality.

A further data set addresses T1, A₂ receptor (Rattus norvegicus, UniProt P30543).
T1 construct: from tissue; host or cells: rat corpus striatum membrane preparation
The data set is described as follows: Adenosine A₂ receptor binding test (³H-NECA binding). The settings on record: ³H-NECA binding, rat corpus striatum, read-out: Inhibition (%) A₂ Receptor; for inhibition at 100 µM: 10⁻⁴M; for inhibition at 10 µM: 10⁻⁵M; for inhibition at 1 µM: 10⁻⁶M; for inhibition at 0.1 µM: 10⁻⁷M. On the procedure:
The similar procedure as in the above-described adenosine A₁ receptor binding test was repeated using rat corpus striatum to obtain the final precipitate of the tissue thereof. The precipitate was suspended in 50 mM Tris HCl buffer containing 10 mM magnesium chloride and 0.02 unit/mg tissue of adenosine deaminase (manufactured by Sigma Co.) to give a tissue concentration of 5 mg (wet weight)/ml.
The mixture solution was allowed to stand at 25°C for 120 minutes and then treated in the same manner as in the adenosine A₁ receptor binding test to determine the radioactivity bound to the A₂ receptors.
The inhibition rate of the test compound against the binding of A₂ receptor (³H-NECA binding) was calculated by the following equation: [formula] [Notes] • 1.

Data set [1] relates to Haloperidol-Induced Catalepsy. The data set can be described thus: Effect on haloperidol-induced catalepsy. The settings on record: for Number of the Animals Showing Remission: of five mice, catalepsy score not more than 4 points; for Number of the Animals Showing Remission / Remission Rate (%) / Total Score: 10 mg/kg orally; for Remission Rate (%): rate of decrease in total score based on control group; for Total Score: total catalepsy score of five mice (25 points at the full), haloperidol 1.0 mg/kg i.p.; for ED50: Mus musculus, 1 h, ten mice at each dose, effective = catalepsy score 3 or less, Probit analysis, oral, read-out: ED₅₀. In kind it is in vivo, mice. The protocol: Haloperidol (Janssen Pharmaceutica) suspended in 0.3% CMC was intraperitoneally administered to each mouse at a dose of 1.0 mg/kg. Test compounds were suspended in 0.3% CMC or in injectable distilled water (Otsuka Pharmaceutical Co., Ltd.) containing Tween 80. L-DOPA (Kyowa Hakko Kogyo Co., Ltd.) and benserazide hydrochloride (Kyowa Hakko Kogyo Co., Ltd.) were suspended in 0.3% CMC. One hour after the haloperidol administration, the test compound suspensions and the control suspension [injectable distilled water (Otsuka Pharmaceutical Co., Ltd.) containing Tween 80] containing no test compound were orally administered to separate groups of the mice (0.1 ml per 10 g of body weight). One hour after the administration of the test compound, the forelimbs of each mouse and subsequently the hindlimbs of the same mouse were placed on a 4.5 cm-high, 1.0 cm-wide bar and catalepsy was estimated. […] The catalepsy score and the standard of judgment are shown below. […] The number of the animals showing remission against catalepsy is the number of the mice for which the catalepsy score was not more than 4 points. […] The ED₅₀ values were calculated by Probit analysis.

T1 sequence (P30543 whole entry): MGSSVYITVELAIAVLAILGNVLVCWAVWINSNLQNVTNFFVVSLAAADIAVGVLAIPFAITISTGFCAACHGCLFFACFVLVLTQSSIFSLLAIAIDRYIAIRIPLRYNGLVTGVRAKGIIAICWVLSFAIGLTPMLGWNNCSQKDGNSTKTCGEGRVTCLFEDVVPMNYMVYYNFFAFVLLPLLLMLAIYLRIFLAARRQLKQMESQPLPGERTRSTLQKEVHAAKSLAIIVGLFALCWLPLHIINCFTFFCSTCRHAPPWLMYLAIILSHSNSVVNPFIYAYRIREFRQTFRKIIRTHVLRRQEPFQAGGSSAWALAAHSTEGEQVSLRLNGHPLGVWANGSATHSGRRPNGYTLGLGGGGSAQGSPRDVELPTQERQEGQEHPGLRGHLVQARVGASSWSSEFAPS

`CCn1c(=O)c2[nH]c(/C=C/c3cccc(OC)c3[N+](=O)[O-])nc2n(CC)c1=O` [Compound 63, (E)-1,3-Diethyl-8-(3-methoxy-2-nitrostyryl)xanthine] showed an MLD in the data set on dd-strain male mice above 300 mg/kg. Moreover, on A₂ receptor, the inhibition at 100 µM was found to be 79% and the inhibition at 10 µM turned out to be 74%. In addition, in data set [1], the “Number of the Animals Showing Remission” value came out at 3, the “Remission Rate (%)” value is listed as 32% and the “Total Score” value is 17.

The compound `CCn1c(=O)c2[nH]c(/C=C/c3ccc(OC)c(Br)c3)nc2n(CC)c1=O` [Compound 55, (E)-8-(3-Bromo-4-methoxystyryl)-1,3-diethylxanthine] returned an MLD with dd-strain male mice above 100 mg/kg. On A₂ receptor, the inhibition at 100 µM stood at 81%, the inhibition at 10 µM is 77%, the inhibition at 1 µM came out at 65% and the inhibition at 0.1 µM was 56%.

With `CCn1c(=O)c2[nH]c(/C=C/c3cc(OC)cc(OC)c3)nc2n(CC)c1=O` [Compound 67, (E)-8-(3,5-Dimethoxystyryl)-1,3-diethylxanthine], the MLD in the data set with dd-strain male mice is above 100 mg/kg. Besides, on A₂ receptor, the inhibition at 1 µM amounted to 73% and the inhibition at 0.1 µM stood at 73%. For the same compound, in data set [1], the “Number of the Animals Showing Remission” value stood at 5, the “Remission Rate (%)” value is given as 64% and the “Total Score” value came out at 9.

The compound `COc1ccc(/C=C/c2nc3c([nH]2)c(=O)n(C)c(=O)n3C)c(Cl)c1OC` [Compound 51, (E)-8-(2-Chloro-3,4-dimethoxystyryl)theophylline] yielded an MLD in the data set on dd-strain male mice above 100 mg/kg. In addition, at A₂ receptor, the inhibition at 100 µM came out at 91% and the inhibition at 10 µM worked out at 88%.

In the case of `CCn1c(=O)c2c(nc(/C=C/c3cccc(F)c3)n2C)n(CC)c1=O` [Compound 66, (E)-1,3-Diethyl-8-(3-fluorostyryl)-7-methylxanthine], the MLD with dd-strain male mice is on record as above 300 mg/kg. At A₂ receptor, the inhibition at 1 µM turned out to be 93% and the inhibition at 0.1 µM is 78%.

For the compound `CCn1c(=O)c2c(nc(/C=C/c3cccc(Cl)c3)n2C)n(CC)c1=O` [Compound 70, (E)-8-(3-Chlorostyryl)-1,3-diethyl-7-methylxanthine], the MLD with dd-strain male mice is listed as above 300 mg/kg. On A₂ receptor, the inhibition at 1 µM came out at 84% and the inhibition at 0.1 µM turned out to be 76%. Also, in data set [1], the “Number of the Animals Showing Remission” value came to 4, the “Remission Rate (%)” value came out at 44% and the “Total Score” value worked out at 14.

Turning to `CCn1c(=O)c2c(nc(/C=C/c3ccc(OC)cc3OC)n2C)n(CC)c1=O` [Compound 6, (E)-8-(2,4-Dimethoxystyryl)-1,3-diethyl-7-methylxanthine], in the data set on dd-strain male mice, the MLD is reported as above 300 mg/kg. In data set [1], the ED50 was found to be 1.7 mg/kg, the “Number of the Animals Showing Remission” value worked out at 5, the “Remission Rate (%)” value is listed as 76% and the “Total Score” value was 6.

In the data set on dd-strain male mice, `CCOc1ccc(/C=C/c2nc3c([nH]2)c(=O)n(CC)c(=O)n3CC)cc1` [Compound 35, (E)-8-(4-Ethoxystyryl)-1,3-diethylxanthine] yielded an MLD above 100 mg/kg. Besides, on A₂ receptor, the inhibition at 1 µM came to 71% and the inhibition at 0.1 µM came out at 54%.

The compound `COc1ccc(/C=C/c2nc3c([nH]2)c(=O)n(C)c(=O)n3C)c(OC)c1` [Compound 27, (E)-8-(2,4-Dimethoxystyryl)theophylline] registered an MLD in the data set on dd-strain male mice above 100 mg/kg. In addition, on A₂ receptor, the inhibition at 100 µM came out at 90% and the inhibition at 10 µM stood at 89%.

For the compound `CCCOc1ccc(/C=C/c2nc3c([nH]2)c(=O)n(CC)c(=O)n3CC)cc1` [Compound 37, (E)-1,3-Diethyl-8-(4-propoxystyryl)xanthine], the MLD in the data set on dd-strain male mice is above 100 mg/kg. Moreover, on A₂ receptor, the inhibition at 1 µM turned out to be 60% and the inhibition at 0.1 µM was 56%.

Take `COc1cccc(/C=C/c2nc3c(=O)n(C)c(=O)n(C)c3[nH]2)c1OC` [Compound 25, (E)-8-(2,3-Dimethoxystyryl)theophylline]: the MLD in the data set on dd-strain male mice is above 100 mg/kg. Moreover, at A₂ receptor, the inhibition at 100 µM worked out at 70% and the inhibition at 10 µM stood at 76%.

Consider `CCn1c(=O)c2c(nc(/C=C/c3cc(OC)c(OC)cc3Br)n2C)n(CC)c1=O` [Compound 60, (E)-8-(2-Bromo-4,5-dimethoxystyryl)-1,3-diethyl-7-methylxanthine], for which the MLD with dd-strain male mice is on record as above 100 mg/kg. Further, on A₂ receptor, the inhibition at 100 µM worked out at 84% and the inhibition at 10 µM turned out to be 75%.

In the data set on dd-strain male mice, `CCn1c(=O)c2c(nc(/C=C/c3cc(C)ccc3C)n2C)n(CC)c1=O` [Compound 34, (E)-8-(2,5-Dimethylstyryl)-1,3-diethyl-7-methylxanthine] returned an MLD above 300 mg/kg. Besides, at A₂ receptor, the inhibition at 100 µM amounted to 94%, the inhibition at 10 µM was 90%, the inhibition at 1 µM turned out to be 93% and the inhibition at 0.1 µM turned out to be 86%. For the same compound, in data set [1], the ED50 worked out at 2.6 mg/kg, the “Number of the Animals Showing Remission” value came to 5, the “Remission Rate (%)” value was 68% and the “Total Score” value stood at 8.

For `COc1ccc(/C=C/c2nc3c(c(=O)n(C)c(=O)n3C)n2C)c(OC)c1C` [Compound 32, (E)-8-(2,4-Dimethoxy-3-methylstyryl)caffeine], the MLD with dd-strain male mice is above 100 mg/kg. Besides, on A₂ receptor, the inhibition at 100 µM was found to be 98%, the inhibition at 10 µM came out at 82%, the inhibition at 1 µM is 84% and the inhibition at 0.1 µM amounted to 83%. In data set [1], the “Number of the Animals Showing Remission” value is reported as 4, the “Remission Rate (%)” value is on record as 32% and the “Total Score” value turned out to be 17.

With `CCn1c(=O)c2c(nc(/C=C/c3cc(C)c(OC)cc3C)n2C)n(CC)c1=O` [Compound 12, (E)-1,3-Diethyl-8-(4-methoxy-2,5-dimethylstyryl)-7-methylxanthine], the MLD in the data set with dd-strain male mice is listed as above 300 mg/kg. In data set [1], the ED50 came out at 2.7 mg/kg, the “Number of the Animals Showing Remission” value came to 5, the “Remission Rate (%)” value was found to be 52% and the “Total Score” value turned out to be 12.

In the case of `CCn1c(=O)c2[nH]c(/C=C/c3ccc(OC)c(OC)c3Cl)nc2n(CC)c1=O` [Compound 49, (E)-8-(2-Chloro-3,4-dimethoxystyryl)-1,3-diethylxanthine], the MLD in the data set with dd-strain male mice was above 100 mg/kg. Moreover, on A₂ receptor, the inhibition at 100 µM was 112%, the inhibition at 10 µM amounted to 108%, the inhibition at 1 µM was found to be 76% and the inhibition at 0.1 µM is 73%.

In the data set on dd-strain male mice, `COc1ccc(/C=C/c2nc3c(c(=O)n(C)c(=O)n3C)n2C)c(OC)c1` [Compound 28, (E)-8-(2,4-Dimethoxystyryl)caffeine] gave an MLD above 300 mg/kg. Moreover, on A₂ receptor, the inhibition at 100 µM came to 99%, the inhibition at 10 µM was found to be 86%, the inhibition at 1 µM came to 80% and the inhibition at 0.1 µM is 46%.

`COc1ccc(/C=C/c2nc3c(c(=O)n(C)c(=O)n3C)n2C)cc1Br` [Compound 58, (E)-8-(3-Bromo-4-methoxystyryl)caffeine] returned an MLD in the data set on dd-strain male mice above 300 mg/kg. Besides, on A₂ receptor, the inhibition at 100 µM is 78% and the inhibition at 10 µM was found to be 84%.

On to `CCn1c(=O)c2[nH]c(/C=C/c3cc(C)ccc3C)nc2n(CC)c1=O` [Compound 33, (E)-8-(2,5-Dimethylstyryl)-1,3-diethylxanthine], for which the MLD in the data set with dd-strain male mice is reported as above 300 mg/kg. Moreover, at A₂ receptor, the inhibition at 100 µM was 92% and the inhibition at 10 µM amounted to 93%.

Compound `COc1cccc(/C=C/c2nc3c(c(=O)n(C)c(=O)n3C)n2C)c1OC` [Compound 26, (E)-8-(2,3-Dimethoxystyryl)caffeine] showed an MLD in the data set with dd-strain male mice above 300 mg/kg. Further, at A₂ receptor, the inhibition at 100 µM amounted to 79%, the inhibition at 10 µM came out at 75%, the inhibition at 1 µM was found to be 59% and the inhibition at 0.1 µM was determined as 27%.

Regarding `CCn1c(=O)c2[nH]c(/C=C/c3ccc(N(C)C)cc3)nc2n(CC)c1=O` [Compound 99, (E)-8-[4-(N,N-Dimethylamino)styryl]-1,3-diethylxanthine], the MLD in the data set on dd-strain male mice is on record as above 100 mg/kg. Further, at A₂ receptor, the inhibition at 1 µM is 64% and the inhibition at 0.1 µM was 25%.

`CCn1c(=O)c2[nH]c(/C=C/c3cccc(F)c3)nc2n(CC)c1=O` [Compound 65, (E)-1,3-Diethyl-8-(3-fluorostyryl)xanthine] registered an MLD with dd-strain male mice above 100 mg/kg. At A₂ receptor, the inhibition at 1 µM was found to be 64% and the inhibition at 0.1 µM came out at 64%.

What is called inhibition is the relative decrease from the control value, in per cent.
